From the supplement of paper PMC12463676, “Small-molecule dissolution of stress granules by redox modulation benefits ALS models” (Nature Chemical Biology, 2025)

How the values were obtained:
potassium arsenate = compound: O=[As]([O-])(O)O.[K+] [potassium arsenate]; assay: thermal stability z-score vs DMSO; higher = more thermally stabilized by treatment; conditions: HeLa; arsenate concentration 1 mM
Experimental: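 Cellular thermal proteome profiling in HeLa cells treated with 1 mM arsenate for 1 h (DMSO pretreatment), heated to ten temperatures (37-66.3 °C). Soluble protein was quantified by TMT mass spectrometry relative to DMSO controls; the thermal stability score was transformed to a z-score; mean of n = 3 experiments.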

lipoamide = compound: NC(=O)CCCCC1CCSS1 [lipoamide]; assay: as above; conditions: HeLa, lipoamide concentration 100 µM
Experimental: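 Cellular thermal proteome profiling in HeLa cells. Cells were treated with 100 µM lipoamide for 1 h, with or without 1 mM arsenate for a further 1 h, then heated to ten temperatures (37-66.3 °C), and soluble protein was quantified by TMT mass spectrometry relative to 0.1% DMSO controls. The thermal stability score (sum of log2 fold changes minus the abundance score) was transformed to a z-score; mean of n = 3 experiments.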

[1] = arsenate co-treatment: 1 mM arsenate 1 h
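Note: each temperature applied for 3 min, abundance score taken as mean log2 fold change at the two lowest temperatures, z-score obtained by mean subtraction and division by SD.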

## FIP1L1 (UniProt Q6UN15)
Potassium arsenate
  thermal stability z-score: -1.73
lipoamide; [1]
  thermal stability z-score: 0.903
lipoamide; arsenate co-treatment: none
  thermal stability z-score: 0.265

## R3HDM1 (UniProt Q15032)
Potassium arsenate
  thermal stability z-score: 0.0316
lipoamide; [1]
  thermal stability z-score: 0.0761
lipoamide; arsenate co-treatment: none
  thermal stability z-score: 0.111

## SUPT5H (UniProt O00267)
Potassium arsenate
  thermal stability z-score: -0.186
lipoamide; [1]
  thermal stability z-score: 0.685
lipoamide; arsenate co-treatment: none
  thermal stability z-score: -0.0241

## ANXA6 (UniProt P08133)
Potassium arsenate
  thermal stability z-score: 2.15
lipoamide; [1]
  thermal stability z-score: 3.2
lipoamide; arsenate co-treatment: none
  thermal stability z-score: 3.6

## ZW10 (UniProt O43264)
Potassium arsenate
  thermal stability z-score: 0.692
lipoamide; [1]
  thermal stability z-score: -0.0261
lipoamide; arsenate co-treatment: none
  thermal stability z-score: -0.137

## FAM91A1 (UniProt Q658Y4)
Potassium arsenate
  thermal stability z-score: -0.0432
lipoamide; [1]
  thermal stability z-score: -0.0432
lipoamide; arsenate co-treatment: none
  thermal stability z-score: -0.00182

## IL6ST (UniProt P40189)
Potassium arsenate
  thermal stability z-score: -1.84
lipoamide; [1]
  thermal stability z-score: -1.74
lipoamide; arsenate co-treatment: none
  thermal stability z-score: -1

## RHOT1 (UniProt Q8IXI2)
Potassium arsenate
  thermal stability z-score: -0.708
lipoamide; [1]
  thermal stability z-score: -0.488
lipoamide; arsenate co-treatment: none
  thermal stability z-score: -0.262

## RNF187 (UniProt Q5TA31)
Potassium arsenate
  thermal stability z-score: -0.503
lipoamide; [1]
  thermal stability z-score: -0.474
lipoamide; arsenate co-treatment: none
  thermal stability z-score: -1.96

## MIS12 (UniProt Q9H081)
Potassium arsenate
  thermal stability z-score: 0.00203
lipoamide; [1]
  thermal stability z-score: -0.0248
lipoamide; arsenate co-treatment: none
  thermal stability z-score: -0.061

## TTN (UniProt Q8WZ42)
Potassium arsenate
  thermal stability z-score: 0.121
lipoamide; [1]
  thermal stability z-score: 0.609
lipoamide; arsenate co-treatment: none
  thermal stability z-score: 0.578

## RANBP2 (UniProt P49792)
Potassium arsenate
  thermal stability z-score: 1.49
lipoamide; [1]
  thermal stability z-score: -0.733
lipoamide; arsenate co-treatment: none
  thermal stability z-score: -0.425

## TMOD1 (UniProt P28289)
Potassium arsenate
  thermal stability z-score: 0.225
lipoamide; [1]
  thermal stability z-score: 0.167
lipoamide; arsenate co-treatment: none
  thermal stability z-score: 0.298

## POLR1D
Potassium arsenate
  thermal stability z-score: -1.73
lipoamide; [1]
  thermal stability z-score: -0.0835
lipoamide; arsenate co-treatment: none
  thermal stability z-score: -0.377

## BOLA2 (UniProt Q9H3K6)
UniProt Q9H3K6, sequence (Q9H3K6 whole entry): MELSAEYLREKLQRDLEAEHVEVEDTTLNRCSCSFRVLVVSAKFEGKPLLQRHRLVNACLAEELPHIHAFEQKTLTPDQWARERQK
Potassium arsenate
  thermal stability z-score: 0.583
lipoamide; [1]
  thermal stability z-score: 0.16
lipoamide; arsenate co-treatment: none
  thermal stability z-score: 0.49

## GFPT2 (UniProt O94808)
Potassium arsenate
  thermal stability z-score: -0.593
lipoamide; [1]
  thermal stability z-score: 0.344
lipoamide; arsenate co-treatment: none
  thermal stability z-score: -0.0258

## CBR3 (UniProt O75828)
Potassium arsenate
  thermal stability z-score: 0.282
lipoamide; [1]
  thermal stability z-score: 0.347
lipoamide; arsenate co-treatment: none
  thermal stability z-score: -0.0437

## DNAJC7 (UniProt Q99615)
Potassium arsenate
  thermal stability z-score: -0.656
lipoamide; [1]
  thermal stability z-score: -0.214
lipoamide; arsenate co-treatment: none
  thermal stability z-score: 0.475

## SNU13 (UniProt P55769)
Potassium arsenate
  thermal stability z-score: 1.62
lipoamide; [1]
  thermal stability z-score: -0.119
lipoamide; arsenate co-treatment: none
  thermal stability z-score: 0.0598

## SBF1 (UniProt O95248)
UniProt O95248, sequence (O95248 whole entry): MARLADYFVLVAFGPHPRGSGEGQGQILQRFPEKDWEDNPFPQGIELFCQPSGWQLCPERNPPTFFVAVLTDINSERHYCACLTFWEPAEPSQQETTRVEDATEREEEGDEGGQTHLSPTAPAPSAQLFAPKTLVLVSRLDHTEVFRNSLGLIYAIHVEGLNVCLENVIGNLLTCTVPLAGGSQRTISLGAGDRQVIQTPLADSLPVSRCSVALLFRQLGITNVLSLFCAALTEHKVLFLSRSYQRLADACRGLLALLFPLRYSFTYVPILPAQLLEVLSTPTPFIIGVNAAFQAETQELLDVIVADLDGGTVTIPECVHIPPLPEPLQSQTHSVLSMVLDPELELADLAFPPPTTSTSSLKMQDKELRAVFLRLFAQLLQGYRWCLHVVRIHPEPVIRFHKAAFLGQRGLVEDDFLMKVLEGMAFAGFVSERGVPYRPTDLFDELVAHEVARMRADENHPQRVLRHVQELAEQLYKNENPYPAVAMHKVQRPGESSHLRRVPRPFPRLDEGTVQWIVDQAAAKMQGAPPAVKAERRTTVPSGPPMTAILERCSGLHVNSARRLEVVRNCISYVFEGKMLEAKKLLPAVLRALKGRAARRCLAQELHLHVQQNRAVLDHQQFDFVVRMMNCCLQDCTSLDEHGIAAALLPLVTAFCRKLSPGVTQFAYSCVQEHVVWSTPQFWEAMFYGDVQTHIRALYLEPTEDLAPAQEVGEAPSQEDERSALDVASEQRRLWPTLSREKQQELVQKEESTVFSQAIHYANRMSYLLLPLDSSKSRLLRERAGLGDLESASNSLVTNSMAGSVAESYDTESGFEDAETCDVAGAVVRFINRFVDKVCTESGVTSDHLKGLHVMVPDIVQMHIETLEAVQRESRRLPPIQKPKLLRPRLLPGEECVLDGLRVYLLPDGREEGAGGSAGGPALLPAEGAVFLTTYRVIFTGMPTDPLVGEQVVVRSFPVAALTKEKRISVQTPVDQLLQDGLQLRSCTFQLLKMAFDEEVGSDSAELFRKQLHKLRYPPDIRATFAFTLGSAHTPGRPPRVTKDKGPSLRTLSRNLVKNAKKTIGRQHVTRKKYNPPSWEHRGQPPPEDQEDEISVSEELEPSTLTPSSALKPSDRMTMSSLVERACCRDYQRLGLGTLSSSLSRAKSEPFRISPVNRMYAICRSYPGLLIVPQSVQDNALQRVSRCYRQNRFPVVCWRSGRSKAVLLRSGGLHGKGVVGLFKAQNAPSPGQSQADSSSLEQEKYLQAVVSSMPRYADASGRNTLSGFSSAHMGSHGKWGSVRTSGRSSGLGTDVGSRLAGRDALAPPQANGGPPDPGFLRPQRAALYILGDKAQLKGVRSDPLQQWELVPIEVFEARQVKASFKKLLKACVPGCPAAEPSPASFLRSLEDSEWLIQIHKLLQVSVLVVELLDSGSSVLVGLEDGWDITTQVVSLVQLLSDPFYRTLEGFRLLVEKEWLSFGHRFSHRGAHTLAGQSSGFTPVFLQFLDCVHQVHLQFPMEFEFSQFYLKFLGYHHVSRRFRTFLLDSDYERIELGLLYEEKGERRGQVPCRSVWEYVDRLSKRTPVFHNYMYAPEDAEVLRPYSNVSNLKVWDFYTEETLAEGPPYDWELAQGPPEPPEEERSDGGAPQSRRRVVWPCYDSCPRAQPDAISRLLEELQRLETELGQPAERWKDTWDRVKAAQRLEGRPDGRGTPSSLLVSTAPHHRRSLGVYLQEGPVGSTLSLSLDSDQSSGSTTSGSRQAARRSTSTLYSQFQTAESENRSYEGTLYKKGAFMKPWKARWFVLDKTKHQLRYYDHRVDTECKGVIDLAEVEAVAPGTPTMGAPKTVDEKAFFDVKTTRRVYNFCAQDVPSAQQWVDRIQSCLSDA
Potassium arsenate
  thermal stability z-score: -0.338
lipoamide; [1]
  thermal stability z-score: -0.316
lipoamide; arsenate co-treatment: none
  thermal stability z-score: 0.227

## ERCC2 (UniProt P18074)
Potassium arsenate
  thermal stability z-score: 0.0533
lipoamide; [1]
  thermal stability z-score: 0.408
lipoamide; arsenate co-treatment: none
  thermal stability z-score: 0.701

## SPAG1 (UniProt Q07617)
UniProt Q07617, sequence (Q07617 whole entry): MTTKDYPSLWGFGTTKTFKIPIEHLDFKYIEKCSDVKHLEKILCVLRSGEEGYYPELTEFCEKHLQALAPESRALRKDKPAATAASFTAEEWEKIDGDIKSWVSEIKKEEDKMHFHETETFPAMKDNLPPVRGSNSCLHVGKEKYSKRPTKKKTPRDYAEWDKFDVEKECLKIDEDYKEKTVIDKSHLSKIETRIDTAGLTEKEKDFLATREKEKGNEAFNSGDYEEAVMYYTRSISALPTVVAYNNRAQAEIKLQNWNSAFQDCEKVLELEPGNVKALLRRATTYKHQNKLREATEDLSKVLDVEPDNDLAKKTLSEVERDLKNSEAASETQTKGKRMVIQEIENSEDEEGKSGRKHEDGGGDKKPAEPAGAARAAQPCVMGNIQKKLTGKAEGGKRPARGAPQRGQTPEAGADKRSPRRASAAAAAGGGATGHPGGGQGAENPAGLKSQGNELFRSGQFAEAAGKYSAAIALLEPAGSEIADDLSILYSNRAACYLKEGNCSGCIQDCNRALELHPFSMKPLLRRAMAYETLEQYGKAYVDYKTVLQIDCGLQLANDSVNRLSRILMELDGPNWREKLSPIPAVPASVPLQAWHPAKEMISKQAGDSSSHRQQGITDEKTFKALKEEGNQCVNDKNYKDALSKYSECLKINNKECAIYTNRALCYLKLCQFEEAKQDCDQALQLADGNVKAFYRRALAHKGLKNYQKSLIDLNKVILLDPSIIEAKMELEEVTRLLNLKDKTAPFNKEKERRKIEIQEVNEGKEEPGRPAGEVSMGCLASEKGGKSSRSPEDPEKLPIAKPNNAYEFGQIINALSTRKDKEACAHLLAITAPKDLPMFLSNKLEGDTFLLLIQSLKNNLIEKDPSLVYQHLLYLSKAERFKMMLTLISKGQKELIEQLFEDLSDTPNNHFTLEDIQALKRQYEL
Potassium arsenate
  thermal stability z-score: -0.401
lipoamide; [1]
  thermal stability z-score: 0.0825
lipoamide; arsenate co-treatment: none
  thermal stability z-score: 0.0754

## RIC8A (UniProt Q9NPQ8)
UniProt Q9NPQ8, sequence (Q9NPQ8 whole entry): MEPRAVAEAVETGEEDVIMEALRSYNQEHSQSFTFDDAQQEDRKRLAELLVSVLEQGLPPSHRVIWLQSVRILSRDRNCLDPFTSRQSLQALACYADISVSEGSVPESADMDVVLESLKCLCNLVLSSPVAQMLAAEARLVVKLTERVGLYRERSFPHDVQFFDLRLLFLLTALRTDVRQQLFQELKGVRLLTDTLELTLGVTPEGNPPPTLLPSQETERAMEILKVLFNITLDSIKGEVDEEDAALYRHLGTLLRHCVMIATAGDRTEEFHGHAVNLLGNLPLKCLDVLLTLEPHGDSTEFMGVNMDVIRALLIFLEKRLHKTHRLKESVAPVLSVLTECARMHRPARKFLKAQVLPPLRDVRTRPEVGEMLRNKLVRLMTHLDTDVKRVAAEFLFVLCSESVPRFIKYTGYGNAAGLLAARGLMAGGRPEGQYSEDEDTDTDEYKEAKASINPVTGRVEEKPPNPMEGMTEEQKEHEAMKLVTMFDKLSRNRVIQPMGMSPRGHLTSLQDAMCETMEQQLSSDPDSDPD
Potassium arsenate
  thermal stability z-score: 0.476
lipoamide; [1]
  thermal stability z-score: -0.305
lipoamide; arsenate co-treatment: none
  thermal stability z-score: -0.238

## TNRC6A (UniProt Q8NDV7)
Potassium arsenate
  thermal stability z-score: -0.416
lipoamide; [1]
  thermal stability z-score: -0.105
lipoamide; arsenate co-treatment: none
  thermal stability z-score: -0.121

## CAND1 (UniProt Q86VP6)
Potassium arsenate
  thermal stability z-score: -0.122
lipoamide; [1]
  thermal stability z-score: 0.463
lipoamide; arsenate co-treatment: none
  thermal stability z-score: 0.225

## AGTRAP (UniProt Q6RW13)
Potassium arsenate
  thermal stability z-score: 1.66
lipoamide; [1]
  thermal stability z-score: 0.719
lipoamide; arsenate co-treatment: none
  thermal stability z-score: 0.743

## UBE3B (UniProt Q7Z3V4)
Potassium arsenate
  thermal stability z-score: -0.212
lipoamide; [1]
  thermal stability z-score: -0.0453
lipoamide; arsenate co-treatment: none
  thermal stability z-score: -0.155

## KIAA0930 (UniProt Q6ICG6)
Potassium arsenate
  thermal stability z-score: 0.706
lipoamide; [1]
  thermal stability z-score: 0.193
lipoamide; arsenate co-treatment: none
  thermal stability z-score: 0.227

## UBLCP1 (UniProt Q8WVY7)
Potassium arsenate
  thermal stability z-score: 0.8
lipoamide; [1]
  thermal stability z-score: 0.309
lipoamide; arsenate co-treatment: none
  thermal stability z-score: -0.101

## HABP4 (UniProt Q5JVS0)
Potassium arsenate
  thermal stability z-score: -0.0745
lipoamide; [1]
  thermal stability z-score: 0.171
lipoamide; arsenate co-treatment: none
  thermal stability z-score: -0.0888

## NPLOC4 (UniProt Q8TAT6)
Potassium arsenate
  thermal stability z-score: -0.0761
lipoamide; [1]
  thermal stability z-score: -0.0676
lipoamide; arsenate co-treatment: none
  thermal stability z-score: 0.0243

## NUP210 (UniProt Q8TEM1)
Potassium arsenate
  thermal stability z-score: 0.685
lipoamide; [1]
  thermal stability z-score: -0.954
lipoamide; arsenate co-treatment: none
  thermal stability z-score: -1.03

## NDUFAF6 (UniProt Q330K2)
Potassium arsenate
  thermal stability z-score: 0.0349
lipoamide; [1]
  thermal stability z-score: 0.234
lipoamide; arsenate co-treatment: none
  thermal stability z-score: 0.0618

## WDR5 (UniProt P61964)
Potassium arsenate
  thermal stability z-score: 0.234
lipoamide; [1]
  thermal stability z-score: 1.18
lipoamide; arsenate co-treatment: none
  thermal stability z-score: 0.552

## SRSF10 (UniProt O75494)
Potassium arsenate
  thermal stability z-score: 2.99
lipoamide; [1]
  thermal stability z-score: 1.16
lipoamide; arsenate co-treatment: none
  thermal stability z-score: 0.452

## RBBP7 (UniProt Q16576)
Potassium arsenate
  thermal stability z-score: -0.595
lipoamide; [1]
  thermal stability z-score: 0.794
lipoamide; arsenate co-treatment: none
  thermal stability z-score: 0.539

## HADHA (UniProt P40939)
UniProt P40939, sequence (P40939 whole entry): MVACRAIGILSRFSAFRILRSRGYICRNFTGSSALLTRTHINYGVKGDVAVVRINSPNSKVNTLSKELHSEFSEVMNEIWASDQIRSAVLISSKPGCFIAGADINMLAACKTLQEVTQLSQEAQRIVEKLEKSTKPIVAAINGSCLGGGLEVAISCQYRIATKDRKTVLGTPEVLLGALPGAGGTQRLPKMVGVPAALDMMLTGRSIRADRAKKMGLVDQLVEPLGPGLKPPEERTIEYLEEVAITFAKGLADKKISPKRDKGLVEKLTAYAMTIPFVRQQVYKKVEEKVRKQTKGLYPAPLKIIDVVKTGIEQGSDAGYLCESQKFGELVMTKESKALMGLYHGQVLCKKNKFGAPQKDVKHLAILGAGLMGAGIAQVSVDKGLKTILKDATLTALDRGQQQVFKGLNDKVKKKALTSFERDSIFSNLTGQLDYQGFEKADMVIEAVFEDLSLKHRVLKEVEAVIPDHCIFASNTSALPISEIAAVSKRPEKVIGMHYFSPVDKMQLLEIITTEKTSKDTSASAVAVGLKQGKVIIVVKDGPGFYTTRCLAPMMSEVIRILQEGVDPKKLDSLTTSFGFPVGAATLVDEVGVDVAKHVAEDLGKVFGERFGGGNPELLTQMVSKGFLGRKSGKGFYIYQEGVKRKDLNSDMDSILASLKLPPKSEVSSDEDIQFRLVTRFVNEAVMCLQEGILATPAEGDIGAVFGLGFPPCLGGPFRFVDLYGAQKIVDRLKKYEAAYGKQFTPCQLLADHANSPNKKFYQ
Potassium arsenate
  thermal stability z-score: -0.331
lipoamide; [1]
  thermal stability z-score: -0.0579
lipoamide; arsenate co-treatment: none
  thermal stability z-score: 0.088

## TGFBR1 (UniProt P36897)
Potassium arsenate
  thermal stability z-score: -0.162
lipoamide; [1]
  thermal stability z-score: -0.829
lipoamide; arsenate co-treatment: none
  thermal stability z-score: 0.245

## KATNA1 (UniProt O75449)
Potassium arsenate
  thermal stability z-score: -0.539
lipoamide; [1]
  thermal stability z-score: -0.664
lipoamide; arsenate co-treatment: none
  thermal stability z-score: 0.155

## QSOX2 (UniProt Q6ZRP7)
Potassium arsenate
  thermal stability z-score: 0.165
lipoamide; [1]
  thermal stability z-score: 0.352
lipoamide; arsenate co-treatment: none
  thermal stability z-score: 1.15

## GAA (UniProt P10253)
Potassium arsenate
  thermal stability z-score: -0.00416
lipoamide; [1]
  thermal stability z-score: -0.154
lipoamide; arsenate co-treatment: none
  thermal stability z-score: 0.311

## EIF3H (UniProt O15372)
Potassium arsenate
  thermal stability z-score: 0.162
lipoamide; [1]
  thermal stability z-score: -0.579
lipoamide; arsenate co-treatment: none
  thermal stability z-score: -0.608

## VAC14 (UniProt Q08AM6)
Potassium arsenate
  thermal stability z-score: -0.61
lipoamide; [1]
  thermal stability z-score: -0.483
lipoamide; arsenate co-treatment: none
  thermal stability z-score: -0.0923

## H2AFY (UniProt O75367)
Potassium arsenate
  thermal stability z-score: 0.327
lipoamide; [1]
  thermal stability z-score: 0.112
lipoamide; arsenate co-treatment: none
  thermal stability z-score: 0.0481

## NAA35 (UniProt Q5VZE5)
Potassium arsenate
  thermal stability z-score: 0.265
lipoamide; [1]
  thermal stability z-score: 0.334
lipoamide; arsenate co-treatment: none
  thermal stability z-score: 0.635

## ATRAID (UniProt Q6UW56)
Potassium arsenate
  thermal stability z-score: 0.451
lipoamide; [1]
  thermal stability z-score: -2.95
lipoamide; arsenate co-treatment: none
  thermal stability z-score: -2.55

## CDK7 (UniProt P50613)
Potassium arsenate
  thermal stability z-score: -0.0106
lipoamide; [1]
  thermal stability z-score: -0.000906
lipoamide; arsenate co-treatment: none
  thermal stability z-score: -0.0377

## PLEKHF2 (UniProt Q9H8W4)
Potassium arsenate
  thermal stability z-score: -0.196
lipoamide; [1]
  thermal stability z-score: -0.1
lipoamide; arsenate co-treatment: none
  thermal stability z-score: -0.117

## ANXA11 (UniProt P50995)
Potassium arsenate
  thermal stability z-score: 1.77
lipoamide; [1]
  thermal stability z-score: 3.8
lipoamide; arsenate co-treatment: none
  thermal stability z-score: 3.23

## KATNB1 (UniProt Q9BVA0)
Potassium arsenate
  thermal stability z-score: -0.452
lipoamide; [1]
  thermal stability z-score: 0.145
lipoamide; arsenate co-treatment: none
  thermal stability z-score: 0.401

## CDC37 (UniProt Q16543)
UniProt Q16543, sequence (Q16543 whole entry): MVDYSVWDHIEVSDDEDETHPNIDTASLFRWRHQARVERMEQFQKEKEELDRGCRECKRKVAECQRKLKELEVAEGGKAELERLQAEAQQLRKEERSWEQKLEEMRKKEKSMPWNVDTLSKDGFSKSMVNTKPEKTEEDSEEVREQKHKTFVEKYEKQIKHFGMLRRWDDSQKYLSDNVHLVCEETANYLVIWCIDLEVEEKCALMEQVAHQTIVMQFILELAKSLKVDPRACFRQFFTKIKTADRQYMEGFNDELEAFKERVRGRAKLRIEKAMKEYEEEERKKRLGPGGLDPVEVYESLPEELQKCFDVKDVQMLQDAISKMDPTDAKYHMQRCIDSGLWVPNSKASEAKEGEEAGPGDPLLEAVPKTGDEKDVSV
Potassium arsenate
  thermal stability z-score: 0.222
lipoamide; [1]
  thermal stability z-score: 0.928
lipoamide; arsenate co-treatment: none
  thermal stability z-score: 0.616

## NAF1 (UniProt Q96HR8)
UniProt Q96HR8, sequence (Q96HR8 whole entry): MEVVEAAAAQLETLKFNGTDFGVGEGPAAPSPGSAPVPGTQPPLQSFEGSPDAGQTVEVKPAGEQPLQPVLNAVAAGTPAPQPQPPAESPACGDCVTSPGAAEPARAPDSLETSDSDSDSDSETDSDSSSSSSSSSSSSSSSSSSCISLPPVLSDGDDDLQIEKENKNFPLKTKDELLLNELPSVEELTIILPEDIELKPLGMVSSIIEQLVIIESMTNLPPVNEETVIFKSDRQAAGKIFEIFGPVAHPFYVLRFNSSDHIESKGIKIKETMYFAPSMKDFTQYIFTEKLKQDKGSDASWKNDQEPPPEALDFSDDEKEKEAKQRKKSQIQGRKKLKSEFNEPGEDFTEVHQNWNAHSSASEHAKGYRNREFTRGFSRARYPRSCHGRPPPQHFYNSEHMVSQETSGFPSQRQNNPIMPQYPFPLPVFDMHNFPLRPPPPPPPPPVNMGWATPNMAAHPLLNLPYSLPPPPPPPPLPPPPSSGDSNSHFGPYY
Potassium arsenate
  thermal stability z-score: 0.149
lipoamide; [1]
  thermal stability z-score: 0.316
lipoamide; arsenate co-treatment: none
  thermal stability z-score: 0.23

## UBE2Q1 (UniProt Q7Z7E8)
Potassium arsenate
  thermal stability z-score: -0.514
lipoamide; [1]
  thermal stability z-score: -0.546
lipoamide; arsenate co-treatment: none
  thermal stability z-score: -0.425

## SHCBP1 (UniProt Q8NEM2)
Potassium arsenate
  thermal stability z-score: -0.451
lipoamide; [1]
  thermal stability z-score: 0.0159
lipoamide; arsenate co-treatment: none
  thermal stability z-score: 0.0645

## ATP5C1 (UniProt P36542)
Potassium arsenate
  thermal stability z-score: -0.252
lipoamide; [1]
  thermal stability z-score: -0.36
lipoamide; arsenate co-treatment: none
  thermal stability z-score: -0.306
